Measurements as given in ChEMBL document CHEMBL4800722, “Data for DCP probe BI 605906” (2021).

How the values were obtained:
[1] = target: T1, D(4) dopamine receptor (Homo sapiens) (UniProt P21917); settings: Compound concentration 10.0 uM
T1 sequence (whole entry): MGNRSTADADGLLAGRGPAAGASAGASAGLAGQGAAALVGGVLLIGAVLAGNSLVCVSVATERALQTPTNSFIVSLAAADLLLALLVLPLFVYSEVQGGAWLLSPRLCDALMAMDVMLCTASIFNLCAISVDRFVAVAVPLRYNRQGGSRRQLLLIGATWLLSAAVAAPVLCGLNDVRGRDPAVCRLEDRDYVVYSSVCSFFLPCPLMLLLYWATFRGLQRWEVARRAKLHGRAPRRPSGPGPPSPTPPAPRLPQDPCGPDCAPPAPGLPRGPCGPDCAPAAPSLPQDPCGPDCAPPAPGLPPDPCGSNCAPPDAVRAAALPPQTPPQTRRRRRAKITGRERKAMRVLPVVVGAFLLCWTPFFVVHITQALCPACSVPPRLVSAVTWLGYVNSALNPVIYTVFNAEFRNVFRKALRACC

[2] = target: Protein-tyrosine kinase 6 (Homo sapiens) (UniProt Q13882); settings: Compound concentration 1.0 uM
[3] = target: Homeodomain-interacting protein kinase 1 (Homo sapiens) (UniProt Q86Z02); settings: Compound concentration 1.0 uM
[4] = target: Mitogen-activated protein kinase kinase kinase 11 (Homo sapiens) (UniProt Q16584); settings: Compound concentration 1.0 uM
[5] = target: Wee1-like protein kinase (Homo sapiens) (UniProt P30291); settings: Compound concentration 1.0 uM
[6] = target: Homeodomain-interacting protein kinase 3 (Homo sapiens) (UniProt Q9H422); settings: Compound concentration 1.0 uM
[7] = target: Serine/threonine-protein kinase PAK 5 (Homo sapiens) (UniProt Q9P286); settings: Compound concentration 1.0 uM
[8] = target: Ribosomal protein S6 kinase alpha-1 (Homo sapiens) (UniProt Q15418); experiment: MAPKAPK1A DUNDEE kinase screen (BI); settings: Rattus norvegicus; Compound concentration 10.0 uM
[9] = target: Serine/threonine-protein kinase PLK1 (Homo sapiens) (UniProt P53350)
[10] = target: Dual specificity protein kinase CLK3 (Homo sapiens) (UniProt P49761); experiment: CLK3 Invitrogen Lab (UK) kinase screen (BI); settings: Compound concentration 1.0 uM
Dual specificity protein kinase CLK3 (Homo sapiens), sequence (P49761 whole entry, looked up): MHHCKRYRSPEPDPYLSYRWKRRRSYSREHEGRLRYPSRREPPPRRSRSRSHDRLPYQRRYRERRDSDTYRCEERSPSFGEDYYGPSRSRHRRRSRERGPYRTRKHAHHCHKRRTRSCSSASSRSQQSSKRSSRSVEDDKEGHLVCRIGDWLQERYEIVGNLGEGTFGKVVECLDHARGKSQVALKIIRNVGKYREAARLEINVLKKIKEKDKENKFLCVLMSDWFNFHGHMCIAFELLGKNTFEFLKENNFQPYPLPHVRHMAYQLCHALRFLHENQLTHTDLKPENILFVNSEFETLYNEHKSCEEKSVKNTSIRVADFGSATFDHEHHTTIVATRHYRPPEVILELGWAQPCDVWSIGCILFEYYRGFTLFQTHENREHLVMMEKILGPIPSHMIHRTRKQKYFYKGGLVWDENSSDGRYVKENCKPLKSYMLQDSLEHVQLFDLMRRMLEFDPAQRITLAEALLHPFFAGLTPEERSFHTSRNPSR

Serine/threonine-protein kinase PLK1 (Homo sapiens), sequence (P53350 whole entry): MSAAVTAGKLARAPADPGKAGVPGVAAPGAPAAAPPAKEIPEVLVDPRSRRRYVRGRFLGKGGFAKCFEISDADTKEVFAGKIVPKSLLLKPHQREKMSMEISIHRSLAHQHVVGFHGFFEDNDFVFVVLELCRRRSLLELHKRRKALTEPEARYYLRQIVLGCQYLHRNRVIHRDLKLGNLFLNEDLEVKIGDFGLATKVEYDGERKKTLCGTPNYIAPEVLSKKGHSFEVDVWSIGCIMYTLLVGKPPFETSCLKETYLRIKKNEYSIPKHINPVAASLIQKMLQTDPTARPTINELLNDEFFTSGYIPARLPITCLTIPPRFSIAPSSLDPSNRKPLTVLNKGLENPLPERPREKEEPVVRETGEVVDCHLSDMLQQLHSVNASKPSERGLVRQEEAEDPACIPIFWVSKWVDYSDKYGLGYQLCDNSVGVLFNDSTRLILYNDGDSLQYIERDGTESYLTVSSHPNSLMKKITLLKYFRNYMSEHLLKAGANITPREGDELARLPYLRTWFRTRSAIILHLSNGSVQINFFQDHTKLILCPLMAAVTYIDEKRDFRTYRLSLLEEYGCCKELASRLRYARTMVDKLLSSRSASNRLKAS
Protein-tyrosine kinase 6 (Homo sapiens), sequence (Q13882 whole entry, looked up): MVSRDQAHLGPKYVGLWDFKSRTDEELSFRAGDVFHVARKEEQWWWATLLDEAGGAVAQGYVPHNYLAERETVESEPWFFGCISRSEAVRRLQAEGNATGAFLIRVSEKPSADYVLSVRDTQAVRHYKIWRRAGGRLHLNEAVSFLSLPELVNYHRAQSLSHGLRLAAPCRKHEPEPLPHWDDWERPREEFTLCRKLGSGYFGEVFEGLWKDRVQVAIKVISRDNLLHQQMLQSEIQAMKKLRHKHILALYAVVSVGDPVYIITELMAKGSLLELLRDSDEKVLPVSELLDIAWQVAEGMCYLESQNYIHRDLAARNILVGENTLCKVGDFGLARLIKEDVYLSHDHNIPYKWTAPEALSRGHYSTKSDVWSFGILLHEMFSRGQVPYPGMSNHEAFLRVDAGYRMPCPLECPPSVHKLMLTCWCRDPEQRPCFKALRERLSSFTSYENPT
Mitogen-activated protein kinase kinase kinase 11 (Homo sapiens), sequence (Q16584 whole entry, looked up): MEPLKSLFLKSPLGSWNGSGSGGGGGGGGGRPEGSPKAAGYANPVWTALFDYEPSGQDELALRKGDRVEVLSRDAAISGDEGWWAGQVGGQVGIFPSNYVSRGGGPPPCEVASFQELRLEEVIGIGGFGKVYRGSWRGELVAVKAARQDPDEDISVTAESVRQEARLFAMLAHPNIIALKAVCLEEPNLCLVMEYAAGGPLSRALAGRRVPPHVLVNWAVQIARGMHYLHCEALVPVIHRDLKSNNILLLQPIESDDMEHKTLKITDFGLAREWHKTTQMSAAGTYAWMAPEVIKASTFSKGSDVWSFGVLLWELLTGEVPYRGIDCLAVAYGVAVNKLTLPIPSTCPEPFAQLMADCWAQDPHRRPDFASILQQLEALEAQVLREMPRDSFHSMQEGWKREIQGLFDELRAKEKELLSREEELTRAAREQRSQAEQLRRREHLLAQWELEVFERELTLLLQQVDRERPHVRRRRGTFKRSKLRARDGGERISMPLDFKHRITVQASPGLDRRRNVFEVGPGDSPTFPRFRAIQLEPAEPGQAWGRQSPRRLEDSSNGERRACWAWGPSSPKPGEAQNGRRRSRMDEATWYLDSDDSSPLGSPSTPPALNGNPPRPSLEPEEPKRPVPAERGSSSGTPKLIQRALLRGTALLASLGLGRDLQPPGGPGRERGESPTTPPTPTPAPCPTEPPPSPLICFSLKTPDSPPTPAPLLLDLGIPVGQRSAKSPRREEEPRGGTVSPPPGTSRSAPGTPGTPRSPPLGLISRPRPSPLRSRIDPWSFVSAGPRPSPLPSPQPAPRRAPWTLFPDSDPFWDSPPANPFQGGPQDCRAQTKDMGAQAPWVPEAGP
Homeodomain-interacting protein kinase 1 (Homo sapiens), sequence (Q86Z02 whole entry, looked up): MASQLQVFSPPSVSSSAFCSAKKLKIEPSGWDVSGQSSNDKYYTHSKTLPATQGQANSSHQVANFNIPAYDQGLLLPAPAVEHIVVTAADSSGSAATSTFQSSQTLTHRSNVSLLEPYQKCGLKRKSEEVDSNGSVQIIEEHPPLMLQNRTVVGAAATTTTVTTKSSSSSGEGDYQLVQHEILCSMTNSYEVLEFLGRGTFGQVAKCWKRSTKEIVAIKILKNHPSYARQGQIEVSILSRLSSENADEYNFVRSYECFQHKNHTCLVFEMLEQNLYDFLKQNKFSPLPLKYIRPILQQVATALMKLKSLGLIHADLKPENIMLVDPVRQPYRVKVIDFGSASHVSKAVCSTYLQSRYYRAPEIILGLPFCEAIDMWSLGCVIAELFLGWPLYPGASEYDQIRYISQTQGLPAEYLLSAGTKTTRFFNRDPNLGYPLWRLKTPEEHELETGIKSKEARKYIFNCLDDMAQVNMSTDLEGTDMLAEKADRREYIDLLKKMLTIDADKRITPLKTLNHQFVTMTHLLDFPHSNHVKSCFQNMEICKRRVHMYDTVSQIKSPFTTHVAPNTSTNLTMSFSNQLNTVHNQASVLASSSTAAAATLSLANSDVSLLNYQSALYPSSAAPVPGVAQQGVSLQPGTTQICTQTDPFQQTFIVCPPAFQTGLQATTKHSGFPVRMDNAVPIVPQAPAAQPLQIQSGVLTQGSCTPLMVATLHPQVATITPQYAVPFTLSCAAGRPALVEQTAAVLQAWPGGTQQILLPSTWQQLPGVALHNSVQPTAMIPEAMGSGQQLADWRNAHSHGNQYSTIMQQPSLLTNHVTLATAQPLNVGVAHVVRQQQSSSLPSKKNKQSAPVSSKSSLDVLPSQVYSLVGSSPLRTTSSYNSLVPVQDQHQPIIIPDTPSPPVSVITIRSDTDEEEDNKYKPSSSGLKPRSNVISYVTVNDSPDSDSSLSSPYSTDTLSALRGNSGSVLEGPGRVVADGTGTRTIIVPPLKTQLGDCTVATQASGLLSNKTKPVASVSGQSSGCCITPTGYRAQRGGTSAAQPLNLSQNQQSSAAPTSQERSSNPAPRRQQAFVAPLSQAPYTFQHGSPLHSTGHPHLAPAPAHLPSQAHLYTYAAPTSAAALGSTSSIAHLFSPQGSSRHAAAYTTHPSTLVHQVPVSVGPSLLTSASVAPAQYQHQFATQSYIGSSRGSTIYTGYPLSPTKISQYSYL
Wee1-like protein kinase (Homo sapiens), sequence (P30291 whole entry, looked up): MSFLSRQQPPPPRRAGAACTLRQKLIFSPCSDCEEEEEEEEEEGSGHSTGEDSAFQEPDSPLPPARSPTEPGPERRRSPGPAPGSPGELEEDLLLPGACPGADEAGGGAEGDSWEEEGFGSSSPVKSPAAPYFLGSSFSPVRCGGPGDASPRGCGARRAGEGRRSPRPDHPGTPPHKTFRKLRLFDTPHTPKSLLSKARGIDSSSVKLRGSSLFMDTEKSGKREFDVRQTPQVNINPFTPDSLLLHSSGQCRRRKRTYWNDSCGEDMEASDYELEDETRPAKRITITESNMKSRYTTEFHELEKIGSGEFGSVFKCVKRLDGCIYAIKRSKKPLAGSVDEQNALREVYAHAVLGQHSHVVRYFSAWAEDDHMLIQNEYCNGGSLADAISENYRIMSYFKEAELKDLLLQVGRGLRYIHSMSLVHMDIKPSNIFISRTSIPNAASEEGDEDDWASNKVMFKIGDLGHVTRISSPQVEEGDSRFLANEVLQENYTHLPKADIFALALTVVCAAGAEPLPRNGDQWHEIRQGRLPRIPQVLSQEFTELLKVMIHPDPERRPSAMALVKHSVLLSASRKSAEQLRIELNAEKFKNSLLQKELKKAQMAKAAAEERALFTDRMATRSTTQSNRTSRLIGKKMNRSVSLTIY
Ribosomal protein S6 kinase alpha-1 (Homo sapiens), sequence (Q15418 whole entry): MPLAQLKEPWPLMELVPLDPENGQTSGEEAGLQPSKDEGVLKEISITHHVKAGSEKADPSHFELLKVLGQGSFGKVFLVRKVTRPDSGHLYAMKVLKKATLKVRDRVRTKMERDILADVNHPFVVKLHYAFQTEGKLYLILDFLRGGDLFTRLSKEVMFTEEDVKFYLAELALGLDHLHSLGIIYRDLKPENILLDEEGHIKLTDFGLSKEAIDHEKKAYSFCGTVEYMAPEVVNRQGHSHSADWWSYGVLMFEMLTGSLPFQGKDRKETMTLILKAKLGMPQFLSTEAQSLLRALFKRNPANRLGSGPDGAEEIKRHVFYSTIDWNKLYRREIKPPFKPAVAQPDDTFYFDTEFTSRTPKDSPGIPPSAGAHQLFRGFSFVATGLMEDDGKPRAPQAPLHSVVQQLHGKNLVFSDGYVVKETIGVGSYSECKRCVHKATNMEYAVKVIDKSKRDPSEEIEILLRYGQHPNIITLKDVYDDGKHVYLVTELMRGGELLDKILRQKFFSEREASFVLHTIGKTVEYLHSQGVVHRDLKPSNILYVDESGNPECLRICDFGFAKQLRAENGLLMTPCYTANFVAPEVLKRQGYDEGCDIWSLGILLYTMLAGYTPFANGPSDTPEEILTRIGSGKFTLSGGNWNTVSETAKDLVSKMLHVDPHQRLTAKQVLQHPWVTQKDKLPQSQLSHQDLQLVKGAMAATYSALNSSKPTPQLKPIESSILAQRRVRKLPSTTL

CCC(F)(F)c1cc(N2CCC(S(C)(=O)=O)CC2)nc2sc(C(N)=O)c(N)c12 [BI-605906]
inactive: inhibition [1] 44.6% | residual activity [2] 98% | residual activity [3] 101% | residual activity [4] 95% | residual activity [5] 82% | residual activity [6] 95% | residual activity [7] 93% | residual activity [8] 77.5% | residual activity ([9]; Compound concentration 1.0 uM) 94% | residual activity ([9]; Compound concentration 10.0 uM) 109% | residual activity [10] 102%
